For 86 molecules, melting point results are on record in a melting point compilation (Tetko et al.; mined from patent text by program, amines drawn as free bases though some values may be those of a salt).

Where only a bound is given, the exact number is not on record here.

A word on the melting point: it is the temperature, or range, at which the solid turns liquid. `Cc1noc(NS(=O)(=O)C23CSc4cccc(c42)OCO3)c1C` (stereo unspecified) showed a melting point of 135 to 137 °C.

In the case of `O=CNc1cccc2ccc(O)cc12`, the melting point lay within 203 to 205 °C.

Molecule `CCCC(=Cc1cccc([N+](=O)[O-])c1)[N+](=O)[O-]` registered a melting point of 45 to 47 °C.

The molecule `CC1(C)C(c2ccc(S(C)(=O)=O)cc2)=C(c2ccccc2)C1(C)O` (stereo unspecified) came in with a melting point of 114 to 115 °C.

`OC1CSC(Oc2ccc(F)nc2)C(O)C1O` (stereo unspecified) came in with a melting point of 209 to 210 °C.

In turn, `CCCc1nc(C(O)CCC)c(C(N)=O)n1Cc1ccc(-c2ccccc2C(=O)O)cc1` (stereo unspecified) registered a melting point of 118 to 121 °C.

For `Nc1ccc(-c2ncnn2-c2ccc(Br)cc2)cc1`, the melting point lay within 128 to 130 °C.

In the case of `COC(=O)Cn1c(-c2ccc(Cl)cc2)nc2cccnc21`, the melting point fell in the range of 198 to 200 °C.

Regarding `Clc1ncccc1OCC1CO1` (stereo unspecified), the melting point turned out to be 132 °C.

On to `COC(=O)C(C)(C)Cc1cc2cc(OCc3ccc4ccccc4n3)ccc2[nH]1`, for which the melting point was 131 to 132 °C.

As for `COc1ccc(-c2c3cccc(C(F)(F)F)c3nn2CC2CCCCC2)c(OC)c1`, the melting point was in the range of 156 to 157 °C.

Molecule `CN1CCCC(CC(=O)c2ccc(Cl)c(Cl)c2)C1` (stereo unspecified) returned a melting point of 69 to 71 °C.

For the molecule `C=C(C)C(OC(=O)Nc1cc(OC(=O)Oc2cc(NC(=O)OC(C(=C)C)C(=O)OC)c(F)cc2Cl)c(Cl)cc1F)C(=O)OC` (stereo unspecified), the melting point lay in the range of 72 to 74 °C.

In turn, `CCCC(=O)C1C(=O)CC(c2ccc(C)cc2)CC1=O` (stereo unspecified) yielded a melting point of 76 to 78 °C.

Molecule `COc1ccc([N+](=O)[O-])cc1C=C1COc2ccc(OCc3ccccc3)cc2C1=O` had a melting point of 156 to 157 °C.

On to `CSc1ccc(N2CCN(CCCOc3ccc(C4=NCCO4)cc3)CC2)nn1`, for which the melting point worked out at 163 °C.

Molecule `COc1ccc(C=O)c(O[Si](C)(C)C(C)(C)C)c1O[Si](C)(C)C(C)(C)C` registered a melting point of 74 to 75 °C.

Consider `O=C(O)c1cn(-n2cnnc2)c2cc(F)c(F)cc2c1=O`, for which the melting point turned out to be 270 °C.

In turn, `COc1ccc(NCC(O)CO)cc1` (stereo unspecified) had a melting point of 151 to 153 °C.

`COc1c(CC(=O)O)c2c(c3c1OC(C)(C)C3)C(c1ccccc1)=NC(C)(C)C2` gave a melting point of 225 to 245 °C.

Turning to `CCCOc1ccc(S(=O)(=O)CC)cc1-c1nc2c(CC)nn(C[C@@H]3CCCN3C(=O)OC(C)(C)C)c2c(=O)[nH]1`, the melting point lay in the range of 170 to 172 °C.

For the molecule `Cc1ccn2cc(CCc3ccc4nc(N)oc4c3)nc2c1`, the melting point is 262 to 264 °C.

Molecule `CCCCCCCCCCCCCCCCCCOc1cc(N)cc(OCc2ccccc2)c1` yielded a melting point of 57 to 59 °C.

In turn, `NC(=O)c1ccc(-c2cccc3cc(Cc4cccc(C(F)(F)F)c4)sc23)nc1` yielded a melting point of 222 to 223 °C.

For the molecule `CC(=O)OCCCN(C)CCN(C)C(=O)[C@@H]1CCCN1S(=O)(=O)c1ccc(Cl)c(COc2cccc3c(-n4ccnc4)cc(C)nc23)c1Cl`, the melting point worked out at 75 °C.

Turning to `CCCCCCCCCCCCCCCCNc1ccc(C(=O)NS(=O)(=O)c2ccc(N)cc2)cc1`, the melting point lay in the range of 193 to 196 °C.

With `Cc1nn(-c2ccccn2)c2nc3ccccc3c(N3CCOCC3)c12`, the melting point was in the range of 203 to 205 °C.

In turn, `Nc1nc(N)nc(C2CCC(c3nc(N)nc(N)n3)CC2)n1` (stereo unspecified) gave a melting point of 317 to 321 °C.

Regarding `CCOC(=O)c1cnc2ccc(SC)cc2c1O`, the melting point is over 260 °C.

`CCn1cc(C(=O)O)c(=O)c2cc(F)c(N3CCNC(COC)C3)cc21` (stereo unspecified) gave a melting point of 169 to 170 °C.

The molecule `COC(=O)C1CCC2ON=C(c3ccc(Cl)cc3)C2CC1` (stereo unspecified) had a melting point of 150 to 185 °C.

As to `O=C1OC(=O)c2c(Sc3ccc(Cl)c(Cl)c3)cc([N+](=O)[O-])cc21`, the melting point is 154 to 157 °C.

In turn, `COCC1CN(c2ccc(C3CCC(OC)CC3)cc2)C(=O)O1` (stereo unspecified) gave a melting point of 82 to 83 °C.

`Nc1cccc(NC(=O)OCc2cc3cc(-c4ccc(F)cc4)ccc3o2)c1C(=O)O` displayed a melting point of 176 to 178 °C.

Molecule `OC(CNC1CCc2ccccc2C1)COc1cccc(C(F)(F)F)c1` (stereo unspecified) displayed a melting point of 84 to 89 °C.

Molecule `CS(=O)c1ccc(-c2nn(Cc3ccc(F)cc3F)c(=O)cc2-c2ccc(Cl)cc2)cc1` (stereo unspecified) came in with a melting point of 156 °C.

For `Cc1cccc(Nc2cc(Nc3ccc(O)cc3)ncn2)c1`, the melting point was in the range of 242 to 245 °C.

As to `Cc1nnc(-c2ccc3occ(-c4cnn(Cc5ccccn5)c4)c3c2)o1`, the melting point lay in the range of 134 to 135 °C.

Molecule `CCOC(=O)COc1cccc2c1CCc1sc(SCC(c3ccccc3)c3ccccc3)nc1-2` had a melting point of 92 to 93 °C.

`CCCCCCCCCCc1nnn[nH]1` came in with a melting point of 57 to 59 °C.

`O=C(O)CCc1cn(Cc2ccc(OCc3ccccc3)cc2)nc1-c1ccccc1`: the melting point lay within 147 to 148 °C.

Turning to `O=C(c1ccc(F)cc1)C1CCN(CC2CC(c3ccc4[nH]c(=O)oc4c3)=NO2)CC1` (stereo unspecified), the melting point was in the range of 188 to 190 °C.

In the case of `O=C1CCCc2nc3sccc3c(NCc3ccccc3)c21`, the melting point was in the range of 159 to 160 °C.

As for `Cn1cc(C2=C(c3cccc4ccccc34)C(=O)NC2=O)c2ccccc21`, the melting point fell in the range of 258 to 260 °C.

For `CCC(C)NC(Nc1cc(Cl)cc(Cl)c1)=C(C#N)S(=O)(=O)c1ccc(Cl)cc1` (stereo unspecified), the melting point lay within 150 to 152 °C.

Take `CN1CC(c2cccc(Cl)c2)C(=O)C(c2cccc(Cl)c2)C1` (stereo unspecified): the melting point was 140 °C.

Regarding `CCc1nc2cc(S(N)(=O)=O)c(Cl)cc2n1-c1ccc(CCNC(=O)NS(=O)(=O)c2ccc(C)cc2)cc1`, the melting point was 163 to 170 °C.

The molecule `O=C(CN(Cc1ccccc1)c1c(C(=O)O)[nH]c2cc(Cl)cc(Cl)c12)c1ccccc1` had a melting point of 266 to 267 °C.

Take `CCc1nc2c(c(C)c(C)n3nnnc23)n1CCOCCN1CCCC1=O`: the melting point lay in the range of 141 to 143 °C.

The molecule `COC(C)c1c(C(C)C)nc(C(C)C)c(CO)c1-c1ccc(F)cc1` (stereo unspecified) gave a melting point of 151 to 153 °C.

As for `c1ccc(-c2nc3c([nH]2)Cc2ccccc2-3)cc1`, the melting point is 141 to 143 °C.

Take `CCCCc1oc2ccccc2c1C(O)c1ccc(-c2ccc(OCC(=O)O)cc2)cc1` (stereo unspecified): the melting point is 111 to 113 °C.

On to `O=c1[nH]cc(C=Cc2cccnc2)c2ccccc12`, for which the melting point lay in the range of 222 to 224 °C.

`COc1cc2c(cc1OC)C(C=Cc1ccc(Cl)c(Cl)c1)=NNC(C)C2` (stereo unspecified) came in with a melting point of 132 to 133 °C.

On to `CC1=C(Cc2ccc(C(C)C)cc2)C(=O)C2C=CC=CC2C1=O` (stereo unspecified), for which the melting point lay in the range of 64 to 65 °C.

`CC(=O)OC(Cn1cncn1)(c1ccc(F)cc1F)C1(S(=O)(=O)Cl)CC1` (racemic) yielded a melting point of 163 to 165 °C.

Take `CC(C)(C)CC(C)(C)c1cc(-n2nc3ccc(C(F)(F)F)cc3n2)c(O)c(C(C)(C)c2ccccc2)c1`: the melting point fell in the range of 119 to 121 °C.

In turn, `CN(c1cccc2cc(C3=NCC(CCO)S3)[nH]c12)S(=O)(=O)c1cccs1` (stereo unspecified) showed a melting point of 168 to 169 °C.

On to `CCN(CC)C(=O)Oc1c2c(ccc3cc(F)ccc32)nn1-c1ccc(F)cc1`, for which the melting point fell in the range of 159 to 160 °C.

In the case of `O=c1[nH]c2ccc(Cl)cc2n1CCN1CCCCC1`, the melting point lay within 156 to 158 °C.

Molecule `COc1cc(C)nc(N(C)C(=O)NS(=O)(=O)c2cc(Cl)ccc2Cl)n1` returned a melting point of 182 to 185 °C.

For `O=C(Nc1ccccc1)c1ccc(C(=O)Nc2nnc(-c3cc(Cl)cc(Cl)c3O)s2)cc1`, the melting point was 342 °C.

For `COc1cc2ncnc(N3CCCN(C(=O)Nc4ccc([N+](=O)[O-])cc4)CC3)c2cc1OC`, the melting point lay in the range of 243 to 244 °C.

As for `O=c1[nH]c2ncc(-c3ccc(O)cc3)nc2n1CCC1CCOCC1`, the melting point lay within 276 to 277 °C.

In the case of `CC(C)(O)Cc1cccc(O)c1`, the melting point lay in the range of 91 to 94 °C.

Consider `c1ccc(OCCSCc2nnc(-c3ccc(OCCN4CCCC4)cc3)o2)cc1`, for which the melting point came to 65 °C.

In turn, `Cc1c(CCc2ccccc2)c(=O)oc2cc(OCc3nnn[nH]3)cc(OCc3nnn[nH]3)c12` returned a melting point of 248 to 250 °C.

Molecule `OCCn1ccc2ncnc(Nc3ccc(Oc4cccc5sncc45)c(Cl)c3)c21` showed a melting point of 218 to 220 °C.

Molecule `CCc1cccc(-n2ncc(C(=O)O)c2C(N)=O)c1` had a melting point of 176 to 178 °C.

On to `Cn1c(=O)ccc2cc(COc3cc(F)cc(C4CCOCC4)c3)ccc21`, for which the melting point is 126 to 127 °C.

Molecule `O=c1[nH]c(-c2ccccc2)ncc1[N+](=O)[O-]` yielded a melting point of 264 to 266 °C.

`O=C1CCCCCCCCCCCCCCCCCCCCCC(O)C(=O)OCCCC1` (stereo unspecified) had a melting point of 67 to 68 °C.

On to `CCOC(=O)c1c(Cn2cnc3ccccc32)nc2cc(OC)c(OC)cc2c1-c1ccc(OC)c(OC)c1`, for which the melting point lay within 99 to 100 °C.

Molecule `Cc1cc(Cl)cc(Cl)c1S(=O)(=O)Nc1nc(CC(=O)N2CCOCC2)c(C)s1` had a melting point of 186 to 187 °C.

Consider `CN1CCN(C2=Nc3ccccc3Sc3nccn32)CC1`, for which the melting point was in the range of 145 to 147 °C.

For `Cc1cc(C)c(N2C(=O)C(C)Cc3c(Cl)nc(C)nc32)c(C)c1` (stereo unspecified), the melting point is 136 to 139 °C.

With `COc1ccc(S(=O)(=O)N2CCc3cccc(-c4ccc(C=O)cc4)c32)cc1`, the melting point was 152 to 153 °C.

Consider `CNC1N=CN(c2c(Cl)cccc2Cl)C(=O)N1` (stereo unspecified), for which the melting point stood at 270 °C.

For `O=C(Cn1c(-c2ccc(F)cc2)ncc(NC(=O)OCc2ccccc2)c1=O)NC(Cc1ccccc1)C(=O)C1=NCCO1` (stereo unspecified), the melting point was 215 to 220 °C.

As for `CC(=O)N1CCCCc2ccc(/C=C/CN(C)C)cc21`, the melting point was in the range of 87 to 88 °C.

Take `COC(=O)Cn1oc2cc(OC)ccc2c1=O`: the melting point is 185 to 188 °C.

For the molecule `Cc1nc(-c2ccc(-c3ccc(C(=O)Nc4cc(OCCN(C)C)ccc4Cl)cc3)c(C)c2)no1`, the melting point was in the range of 101 to 102 °C.

As to `Cc1cccc(-c2nsc(C(=O)O)c2C(=O)O)c1`, the melting point is 166 to 167 °C.

In turn, `CCOC(=O)c1c(C(C)C)nc2onc(C)c2c1-c1ccc(F)cc1` displayed a melting point of 90 to 110 °C.

For `CCc1cc(NCc2ccc(-c3ccccc3-c3nnn[nH]3)cc2)n2nccc2n1`, the melting point lay in the range of 177 to 179 °C.

In the case of `COc1ccc(-c2cc(C)cn2-c2ccc(S(N)(=O)=O)cc2)cc1`, the melting point lay within 163 to 166 °C.
